The values below come from PubChem BioAssay (NCI).

Some test systems named below: T-47D breast; EKVX NSCLC; MOLT-4 leukemia; MDA-MB-435; SF-539 CNS; SK-MEL-2 melanoma; HCT-15 colon; NCI/ADR-RES ovarian; TK-10 renal; HT29 colon.
What all share (assay): NCI anticancer screen, dose series, 48 h

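Following 48 hours of exposure in 96-well plates, responses at five concentrations were used to interpolate endpoints linearly. TGI: concentration producing complete growth inhibition.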

Turning to `CSC(=NCCCN=C(NS(=O)(=O)c1ccc(Cl)cc1)SC)NS(=O)(=O)c1ccc(Cl)cc1`, the TGI with T-47D breast is more than 100 µM; in the experiment on EKVX NSCLC, 53.1 µM; in the experiment with MOLT-4 leukemia, 33.2 µM; with MDA-MB-435, more than 100 µM; with SF-539 CNS it was more than 100 µM; in the experiment on SK-MEL-2 melanoma, 43.6 µM. Moreover, the TGI in the experiment with HCT-15 colon, in the experiment on NCI/ADR-RES ovarian, in the experiment with TK-10 renal and in the experiment with HT29 colon was more than 100 µM each time.
Take `CCN(CC)CCCNc1nnc(C)c2[nH]c3ccccc3c12`: the TGI is 68.9 µM in the experiment on T-47D breast; 63.4 µM in the experiment with EKVX NSCLC; more than 100 µM with MOLT-4 leukemia; 25.9 µM with MDA-MB-435; 5.86 µM with SF-539 CNS; 33.3 µM in the experiment with SK-MEL-2 melanoma. Further, the TGI was more than 100 µM in the experiment with HCT-15 colon, more than 100 µM in the experiment on NCI/ADR-RES ovarian, 67.2 µM in the experiment with TK-10 renal and 56.1 µM in the experiment on HT29 colon.
Take `COc1ccc(NC(=S)Nc2cccc(C)n2)cc1`: the TGI with T-47D breast, in the experiment with EKVX NSCLC, in the experiment on MOLT-4 leukemia, with MDA-MB-435, with SF-539 CNS and in the experiment with SK-MEL-2 melanoma was more than 100 µM each time. Also, the TGI in the experiment with HCT-15 colon, in the experiment with NCI/ADR-RES ovarian, with TK-10 renal and with HT29 colon was more than 100 µM throughout.
Consider `CCOC(=O)c1c(SCCN(CC)CC)n(-c2ccccc2)c(=S)n(-c2ccccc2)c1=O`, for which the TGI turned out to be 15.3 µM in the experiment with T-47D breast; 24.8 µM in the experiment on EKVX NSCLC; 3.33 µM in the experiment on MOLT-4 leukemia; 4.81 µM with MDA-MB-435; 9.11 µM with SF-539 CNS; 30.1 µM in the experiment with SK-MEL-2 melanoma. Further, the TGI in the experiment on HCT-15 colon is 7.28 µM; with NCI/ADR-RES ovarian, more than 100 µM; in the experiment on TK-10 renal it was 3.39 µM; with HT29 colon it was 12.6 µM.
Regarding `CN1Cc2c(ccc3c2OCO3)[C@@H]2[C@H](O)Cc3cc4c(cc3[C@@H]21)OCO4`, the TGI was more than 100 µM in the experiment with T-47D breast; more than 100 µM in the experiment with EKVX NSCLC; more than 57.1 µM in the experiment on MOLT-4 leukemia; 2.53 µM with MDA-MB-435; 4.6 µM in the experiment on SF-539 CNS; more than 27.1 µM in the experiment with SK-MEL-2 melanoma. Also, the TGI in the experiment with HCT-15 colon is 6.74 µM; with NCI/ADR-RES ovarian, more than 100 µM; in the experiment on TK-10 renal it was more than 100 µM; in the experiment on HT29 colon, 5.12 µM.
With `Cc1ccc(C(=O)C2CC3(CCC2(O)c2ccc(C)cc2)CC(=O)Nc2ccccc2C3=O)cc1` (stereo not drawn), the TGI in the experiment with T-47D breast, with EKVX NSCLC, with MOLT-4 leukemia, in the experiment on MDA-MB-435, with SF-539 CNS and with SK-MEL-2 melanoma was more than 100 µM in each case. Moreover, the TGI with HCT-15 colon, with NCI/ADR-RES ovarian, with TK-10 renal and with HT29 colon was more than 100 µM throughout.
Consider `Nc1nc(Nc2cc(F)c(Cl)c(F)c2)cc(=O)[nH]1`, for which the TGI in the experiment with T-47D breast, in the experiment on EKVX NSCLC, in the experiment with MOLT-4 leukemia, with MDA-MB-435, with SF-539 CNS and with SK-MEL-2 melanoma was more than 100 µM throughout. The TGI in the experiment with HCT-15 colon, in the experiment on NCI/ADR-RES ovarian, with TK-10 renal and in the experiment on HT29 colon was more than 100 µM in each case.
For `CC(C)[C@H](NC(=O)OCc1ccccc1)C(=O)N[C@H](/C=C/C(=O)OC(C)(C)C)CO`, the TGI with T-47D breast, in the experiment with EKVX NSCLC, in the experiment with MOLT-4 leukemia, in the experiment with MDA-MB-435, in the experiment on SF-539 CNS and in the experiment with SK-MEL-2 melanoma was more than 100 µM throughout. Further, the TGI with HCT-15 colon, with NCI/ADR-RES ovarian, in the experiment on TK-10 renal and with HT29 colon was more than 100 µM each time.
`O=C1Cc2c(-c3ccccc3)cc(-c3ccc(Cl)cc3)nc2-c2ccccc2N1`: the TGI in the experiment with T-47D breast is 17.8 µM; in the experiment on EKVX NSCLC it was more than 43.6 µM; in the experiment with MOLT-4 leukemia it was more than 84.8 µM; in the experiment on MDA-MB-435, more than 45.7 µM; with SF-539 CNS, 19.8 µM; in the experiment with SK-MEL-2 melanoma, 49.4 µM. Also, the TGI was more than 55 µM in the experiment on HCT-15 colon, 14.8 µM in the experiment with NCI/ADR-RES ovarian, 14.3 µM with TK-10 renal and more than 46.8 µM with HT29 colon.
For the compound `Clc1cc2ncn(C3CCCO3)c2cc1Cl` (stereo not drawn), the TGI in the experiment with T-47D breast, in the experiment on EKVX NSCLC, with MOLT-4 leukemia, in the experiment with MDA-MB-435, with SF-539 CNS and in the experiment on SK-MEL-2 melanoma was more than 100 µM each time. The TGI in the experiment with HCT-15 colon, in the experiment with NCI/ADR-RES ovarian, with TK-10 renal and in the experiment on HT29 colon was more than 100 µM in each case.
Take `CC(=O)CC(=O)N1CCOC1=O`: the TGI in the experiment with T-47D breast, in the experiment with EKVX NSCLC, in the experiment with MOLT-4 leukemia, with MDA-MB-435, in the experiment on SF-539 CNS and in the experiment on SK-MEL-2 melanoma was more than 10 µM throughout. Further, the TGI in the experiment on HCT-15 colon, in the experiment on NCI/ADR-RES ovarian, in the experiment on TK-10 renal and in the experiment with HT29 colon was more than 10 µM in each case.
As to `Nn1c(=S)[nH]nc(/C=C/c2c(O)ccc3ccccc23)c1=O`, the TGI is 31.9 µM in the experiment on T-47D breast; 20.9 µM in the experiment with EKVX NSCLC; 86.1 µM in the experiment with MOLT-4 leukemia; more than 100 µM in the experiment on MDA-MB-435; more than 100 µM in the experiment on SF-539 CNS; more than 100 µM in the experiment with SK-MEL-2 melanoma. Further, the TGI was 17.9 µM with HCT-15 colon, 14.4 µM in the experiment with NCI/ADR-RES ovarian and 21.9 µM in the experiment on HT29 colon.
Turning to `CC1SCCc2nc3ccccc3n21` (stereo not drawn), the TGI in the experiment on T-47D breast, in the experiment on EKVX NSCLC, in the experiment with MOLT-4 leukemia, in the experiment on MDA-MB-435, in the experiment on SF-539 CNS and with SK-MEL-2 melanoma was more than 100 µM in each case. The TGI in the experiment with HCT-15 colon, in the experiment on NCI/ADR-RES ovarian, with TK-10 renal and in the experiment with HT29 colon was more than 100 µM throughout.
Turning to `COc1ccc(-c2cc(-c3ccc(Nc4ccnc5cc(C(F)(F)F)ccc45)cc3)nc(N)c2C#N)c2ccccc12`, the TGI with T-47D breast, in the experiment on EKVX NSCLC, in the experiment on MOLT-4 leukemia, with MDA-MB-435, in the experiment with SF-539 CNS and in the experiment with SK-MEL-2 melanoma was more than 100 µM in each case. Also, the TGI in the experiment with HCT-15 colon, with NCI/ADR-RES ovarian and in the experiment on TK-10 renal was more than 100 µM in each case.
